Laboratory results: patent US7041785B1, “B1-bradykinin receptor antagonists and use thereof” (Université de Sherbrooke, priority 1996, dated 2006)
Like-named read-outs stand apart in the source and are kept apart here. Non-standard residues stand in square brackets, D forms with d. Residues, ends and D or L forms follow the SMILES beside them. Tyr(3,5-I2) = N[C@@H](Cc1cc(I)c(O)c(I)c1)C(=O)O; d2Nal = N[C@H](Cc1ccc2ccccc2c1)C(=O)O; Ahx = NCCCCCC(=O)O; Sar = CNCC(=O)O

What was measured:
[1] = test system: T1, angiotensin-converting enzyme (ACE); test: Metabolic degradation by purified angiotensin-converting enzyme, HPLC analysis; type: in vitro ADME, rabbit; conditions: rabbit, isolated enzyme ace, pH 7.5
T1 construct: purified angiotensin-converting enzyme (ACE) from rabbit lungs; purchased Sigma, St-Louis, Mo; host or cells: purified from rabbit lungs
Summary of the method: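 Purified rabbit lung ACE (45 μg/mL final) in PBS (50 mmol/L, pH 7.5, 300 mmol/L NaCl) was incubated with peptides at 37 °C; peptides were pre-incubated 5 min before enzyme addition and samples were boiled to stop the reaction. Percent kinin degradation after 30 min was quantified by C18 reverse-phase HPLC at 214 nm, with metabolites identified by electrospray MS.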

[2] = biological target: T2, angiotensin-converting enzyme (ACE) from rabbit lungs (Oryctolagus cuniculus, UniProt P12822); test: as above; type: in vitro ADME; design: purified angiotensin-converting enzyme (ACE) from rabbit lungs; purchased Sigma, St-Louis, Mo; host or cells: purified from rabbit lungs
T2 sequence (P12822 34-1310): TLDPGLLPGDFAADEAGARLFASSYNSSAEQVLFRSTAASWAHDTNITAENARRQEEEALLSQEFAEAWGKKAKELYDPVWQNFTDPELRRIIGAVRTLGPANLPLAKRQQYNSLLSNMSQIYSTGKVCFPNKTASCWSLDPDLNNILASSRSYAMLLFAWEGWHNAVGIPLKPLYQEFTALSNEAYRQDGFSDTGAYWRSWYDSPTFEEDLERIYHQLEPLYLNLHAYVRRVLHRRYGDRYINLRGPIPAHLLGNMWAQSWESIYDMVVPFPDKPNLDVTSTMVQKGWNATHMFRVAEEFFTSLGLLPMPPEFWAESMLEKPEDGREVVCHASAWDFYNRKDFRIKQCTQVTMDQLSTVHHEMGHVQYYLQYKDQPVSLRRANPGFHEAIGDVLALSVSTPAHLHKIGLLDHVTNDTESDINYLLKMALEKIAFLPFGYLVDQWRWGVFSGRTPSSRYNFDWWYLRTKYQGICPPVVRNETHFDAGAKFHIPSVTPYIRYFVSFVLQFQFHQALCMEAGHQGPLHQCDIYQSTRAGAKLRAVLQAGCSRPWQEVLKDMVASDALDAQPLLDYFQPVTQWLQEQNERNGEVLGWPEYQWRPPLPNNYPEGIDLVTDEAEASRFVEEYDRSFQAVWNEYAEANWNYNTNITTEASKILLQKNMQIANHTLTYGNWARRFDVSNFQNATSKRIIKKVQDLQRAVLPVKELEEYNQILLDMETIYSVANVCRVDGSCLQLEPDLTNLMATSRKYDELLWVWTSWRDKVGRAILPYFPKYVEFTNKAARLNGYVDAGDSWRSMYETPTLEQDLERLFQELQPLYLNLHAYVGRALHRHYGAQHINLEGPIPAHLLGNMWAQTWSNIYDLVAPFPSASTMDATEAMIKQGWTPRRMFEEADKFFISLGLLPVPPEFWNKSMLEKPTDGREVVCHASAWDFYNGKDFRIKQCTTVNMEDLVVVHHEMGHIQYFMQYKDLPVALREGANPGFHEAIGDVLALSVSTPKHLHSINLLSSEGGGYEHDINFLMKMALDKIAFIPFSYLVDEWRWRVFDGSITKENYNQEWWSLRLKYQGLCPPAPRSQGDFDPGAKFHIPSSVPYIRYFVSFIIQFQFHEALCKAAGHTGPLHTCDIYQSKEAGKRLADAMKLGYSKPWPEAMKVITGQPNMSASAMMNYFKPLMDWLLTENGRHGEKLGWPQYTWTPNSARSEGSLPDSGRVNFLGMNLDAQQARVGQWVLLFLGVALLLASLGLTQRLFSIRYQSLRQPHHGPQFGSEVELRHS
Method: The metabolic stability of various kinin-related peptides was evaluated by incubating the peptide in the presence of purified angiotensin-converting enzyme (ACE) from rabbit lungs (purchased from Sigma, St-Louis, Mo.) dissolved in phosphate buffered saline (PBS) (50 mmol/L, pH 7.5 containing 300 mmoL/L NaCl); the final concentration of enzyme was 45 μg/mL. The experimental protocol for the measurement of ACE activity has been described elsewhere^15,16. Briefly, 200 μmol/L of peptides (40 μL) were placed in a PBS buffer and incubated for 5 min at 37EC before adding 8.5 μL of ACE (total volume of the reaction medium; 190 μL). Samples were withdrawn at 30 min intervals, immersed in boiling water for 5 min, then cooled on ice and centrifuged (5 min) before proceeding to analysis of peptides by high pressure liquid chromatography (HPLC). Results of ACE metabolism are expressed in percent of kinin degradation following the incubation (30 min) of kinin substrates with the enzyme.
Pure peptides and metabolic products were analysed by reverse-phas HPLC on a C18 μBondapak column (4.6 mm×25 cm) (Waters) of 10-μm particle size. The peptides and their fragments were eluted at the rate of 2.0 mL/min. with a linear gradient ranging from 5 to 65% of acetonitrile/TFA 0.05%/water over 20 min. at room temperature. The elution positions of these peptides were determined by following the absorbance at 214 nm. For each assay, 50 μL of the reaction medium (treated or not with ACE) were extracted and injected into the column. Concentrations of the peaks products, different from the peaks of the peptide substrate, were estimated using a computer software program (Baseline 810; Waters) that controlled also all the chromatography operations. Isolated metabolites and substrates were collected and identified by Electrospray mass spectrometry (positive mode).

| Structure (SMILES) | metabolised at 0.5 h, 42.1 μmol/L ([1]; 30 min incubation of peptide (200 μmol/L) with ACE, 37 C, read-out: ACE (% degradation)) [%] | Less susceptible to ACE proteolytic degradation, relative to Lys(Leu8)desArgBK [2] | metabolised at 0.5 h, 42.1 μmol/L [1] [%] |
| --- | --- | --- | --- |
| CC[C@H](C)[C@H](NC(=O)[C@@H](Cc1ccc2ccccc2c1)NC(=O)[C@H](CO)NC(=O)[C@H](Cc1ccccc1)NC(=O)CNC(=O)[C@@H]1CCCN1C(=O)[C@@H]1CCCN1C(=O)[C@H](CCCNC(=N)N)NC(=O)CNC)C(=O)O [Compound 26, Sar(D-βNal^7, Ile^8)desArg^9BK] (H-[Sar]RPPGFS[d2Nal]I-OH; N-terminus and C-terminus assumed) | 0 | 2-5 times |  |
| CC(=O)N[C@@H](Cc1ccc(O)cc1)C(=O)NCCCCCC(=O)N[C@@H](CCCCN)C(=O)N[C@@H](CCCNC(=N)N)C(=O)N1CCC[C@H]1C(=O)N1CCC[C@H]1C(=O)NCC(=O)N[C@@H](Cc1ccccc1)C(=O)N[C@@H](CO)C(=O)N1CCC[C@H]1C(=O)N[C@@H](CC(C)C)C(=O)O [Compound 27, AcTyrεAhxLys(Leu^8)desArg^9BK] |  | 2-5 times | 52 ± 1 |
| CNCC(=O)N[C@@H](Cc1ccc(O)cc1)C(=O)NCCCCCC(=O)N[C@@H](CCCCN)C(=O)N[C@@H](CCCNC(=N)N)C(=O)N1CCC[C@H]1C(=O)N1CCC[C@H]1C(=O)NCC(=O)N[C@@H](Cc1ccccc1)C(=O)N[C@@H](CO)C(=O)N1CCC[C@H]1C(=O)N[C@@H](CC(C)C)C(=O)O [Compound 28, SarTyrεAhxLys(Leu^8)desArg^9BK] |  | 2-5 times | 34 ± 3 |
| CC[C@H](C)[C@H](NC(=O)[C@@H](Cc1ccc2ccccc2c1)NC(=O)[C@H](CO)NC(=O)[C@H](Cc1ccccc1)NC(=O)CNC(=O)[C@@H]1CCCN1C(=O)[C@@H]1CCCN1C(=O)[C@H](CCCNC(=N)N)NC(=O)[C@H](CCCCN)NC(=O)CCCCCNC(=O)[C@H](Cc1ccc(O)cc1)NC(=O)CNC)C(=O)O [Compound 29, SarTyrεAhxLys(D-βNal^7, Ile^8)desArg^9BK] (H-[Sar]Y[Ahx]KRPPGFS[d2Nal]I-OH; N-terminus and C-terminus assumed) |  | 2-5 times | 15 ± 1 |
| CC[C@H](C)[C@H](NC(=O)[C@@H](Cc1ccc2ccccc2c1)NC(=O)[C@H](CO)NC(=O)[C@H](Cc1ccccc1)NC(=O)CNC(=O)[C@@H]1CCCN1C(=O)[C@@H]1CCCN1C(=O)[C@H](CCCNC(=N)N)NC(=O)[C@H](CCCCN)NC(=O)CCCCCNC(=O)[C@H](Cc1cc(I)c(O)c(I)c1)NC(=O)CNC)C(=O)O [Compound 30, SarTyr(3,5-I)εAhxLys(D-βNal^7, Ile^8)desArg^9BK] (H-[Sar][Tyr(3,5-I2)][Ahx]KRPPGFS[d2Nal]I-OH; N-terminus and C-terminus assumed) |  | 2-5 times | 13 ± 1 |
